Laboratory results from paper PMC12703428, “Development of Granzyme A Turn‐ON Fluorescent Activity‐Based Probes” (Chembiochem, 2025).
Where “and” joins values, the source holds several entries; their conditions need not be identical. Identical values can stand only once.

Experiments:
[1] = target: T1, pro‐form of GzmA (without signal peptide) (Homo sapiens, UniProt P12544); assay: In-gel fluorescence labeling of pro-form of hGzmA; assay type: biochemical; settings: probe 50 nM, 2 h, 37 °C
T1 construct: purchased R&D Systems 2905-SE-010
T1 sequence (P12544 29-262): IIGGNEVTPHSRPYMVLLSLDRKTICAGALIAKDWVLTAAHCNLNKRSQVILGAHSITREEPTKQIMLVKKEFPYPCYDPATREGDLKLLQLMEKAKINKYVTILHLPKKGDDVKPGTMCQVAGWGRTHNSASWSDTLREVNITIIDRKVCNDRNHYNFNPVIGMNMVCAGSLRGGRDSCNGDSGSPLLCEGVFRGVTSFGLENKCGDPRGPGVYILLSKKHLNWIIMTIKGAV
Method: Figure 3 GzmA ABPs covalently and competitively label active human and mouse GzmA. […] Recombinant hGzmA (100 nM) was incubated with varying concentrations of each ABP at 37 °C. […] Recombinant hGzmA (100 nM) was preincubated with covalent inhibitors 1 or 2 (5 μM) for 2 h, followed by labeling with ABPs 3 -5 (50 nM) for 2 h at 37 °C. Note: […] C) Structure of qABP 6. D) Quenched natures of 5 and 6. […] F) Labeling of mGzmA (1 μM) with 5 and 6 (1 μM, 24 h, 37 °C). […] Recorded fluorescence at Ex/Em: 380/460 nm for residual GzmA proteolytic activity. […] B. Cell culture and preparation of cell lysates All cell lines were cultured at 37 °C under 5% CO2 in a humidified atmosphere. […] The supernatant was collected, and protein concentration was measured using a Pierce BCA protein assay. […] In-gel fluorescence imaging […] […] In-gel fluorescence and SYPRO-Ruby staining images were acquired on a Typhoon FLA9500 instrument, while western blot images were acquired on an […] […] Conditions for probe/inhibitor treatment for in-gel fluorescence analysis: Inhibitors and probes were incubated with active (or pro-) GzmA followed by treatment with 4X SDS reducing sample buffer. […] 20 μL of each sample was loaded onto a 15% polyacrylamide gel, which was then subjected to electrophoresis followed by the acquisition of in-gel fluorescence images. […]

NK‐92 cells = assay: Flow cytometry analysis of protein labeling in NK-92 and MDA-MB-231 cells; assay type: cell-based, human; settings: 2 h, 37 °C
Method: Figure 4 Characterization of qABPs in native proteomes. A) Labeling of GzmA by 5 and 6 in lysates of various cell lines (1 h, 37 °C). B) Stability of 5 and 6 in buffer and cell media (11 h, 37 °C). The hydrolysis of probes was measured by monitoring the production of Cy5 fluorescence signal over time. […] C) Labeling of GzmA by probes 3 -6 in NK-92 cells (2 h, 37 °C). D) Flow cytometry analysis of protein labeling in NK-92 cells by 3 -5. […] E) Flow cytometry analysis of concentration-dependent GzmA labeling in NK-92 cells and S/N of 5 (5 μM, 2 h, 37 °C). […] F) Flow cytometry analysis of protein labeling by 5 in MDA-MB-231 cells co-cultured with NK-92 cells (see Supporting Information for conditions).

IGNR [compound 5]
Labeling of pro-form of GzmA [1]: No labeling | Cell permeability by flow cytometry (Cy5 signal in NK-92 cells) (NK‐92 cells; 1x10^6 NK-92 cells, fixed/permeabilized, mean ± SD n = 3): clear Cy5 signal | Concentration dependence of protein labeling in NK-92 cells (flow cytometry) (NK‐92 cells; NK-92 cells, n = 3): concentration‐dependent protein labeling | S/N ratio (mean fluorescence intensity, intact NK-92 versus MDA-MB-231 cells) (NK‐92 cells; probe 5 μM, flow cytometry, n = 3): ≈ 4 and 4
